The source of these data is patent US20180153867A1, “TREATMENT OF PROSTATE CANCER BY CONCOMITANT ADMINISTRATION OF A BROMODOMAIN INHIBITOR AND A SECOND AGENT” (Gilead Sciences, Inc., priority 2016, published 2018).

For series [1] the following is noted: patients, enzalutamide; cited from earlier work.
Series [2] has as its system VCaP (AR-V7 positive) cells. In words: Cell growth inhibition in VCaP cells (Cell Titer-Glo, 96 hours). In kind it is cell-based. Particulars: for effect on growth and number of viable VCaP cells (in words): single agent, 3 to 10,000 nM; for effect on growth and number of viable VCaP cells (in words) / inhibition of cell growth and viability: 96 hours; for EC50: Homo sapiens, VCaP. As to the method:
(§1) VCaP cells were grown under standard cell culture conditions in 10% fetal bovine serum (FBS). LNCaP cells were grown in charcoal stripped FBS supplemented with 10 nM DHT in a 3-dimensional cell spheroid culture system, which increases androgen-dependent growth. […] This concentration of enzalutamide (3000 nM) was chosen for the combination study because it matches the clinical steady state trough level of enzalutamide at the recommended dose of 160 mg QD after accounting for differences in protein binding between cell culture media and human plasma. Cell growth and number was measured by quantification of the total cellular ATP content (Cell Titer-Glo® Luminescent Cell Viability Assay) at the time of compound addition (T=0), and after 96 hours of treatment.
(§2) Referring again to FIG. 1, the Y-axis is normalized CellTiter-Glo values where the bottom of the assay (no ATP)=0% and the DMSO-treated cells=100% at the end of the assay. T=0 represents the CellTiter-Glo signal recorded at the time of compound addition. […] One representative of three independent experiments is shown.

Series [3] in a line: Protein binding difference between cell culture media and human plasma. In kind it is in vitro ADME. To be noted: cell culture media vs human plasma.
Series [4] concerns LNCaP (AR-V7 negative) cells. In words: Cell growth inhibition in LNCaP cells, 3-dimensional spheroid culture (Cell Titer-Glo, 96 hours). It counts as cell-based. The procedure:
as §1, §2
A general note: ATP-based viability assays read luminescence as a measure of living cells.

For series [5] the following is noted: dog, in vivo. The procedure:
The Phase 1 study will be a 3+3 dose escalation to evaluate the safety, tolerability, PK, and maximum tolerated dose of compound (I-1) after multiple dosing in patients with CRPC. The initial dose will be at 0.6 mg, and intensive safety, PK and PD monitoring will occur prior to each dose escalation. […] Approximately six dose levels will be explored. The PD assessment will be a NanoString assay that measures levels of HEXIM1 and CCR2 RNA in peripheral blood cells.

The mark [6] stands for this setting: compound (I-1) alone at its projected Cmax.
[7] abbreviates: compound (I-1) alone at its projected Cmin.
Where [8] appears, read: compound (I-1) at its projected Cmax with 3,000 nM enzalutamide.
Where [9] appears, read: compound (I-1) at its projected Cmin with 3,000 nM enzalutamide.

“Also recorded” adds a separate entry of the source.

`CNC(=O)c1ccc(N2C(=S)N(c3ccc(C#N)c(C(F)(F)F)c3)C(=O)C2(C)C)cc1F` [enzalutamide]: in series [1], the “OS HR” value is 0.69 and the “increase in OS” value is 3.4 month. Moreover, the “effect on growth and number of viable VCaP cells (in words)” value in series [2] is listed as “reduced the growth of VCaP cells but the magnitude of growth suppression was significantly less than that observed for compound (I-1)”.
For the molecule `Cc1noc(C)c1-c1cc(C(O)(c2ccccn2)c2ccccn2)c2nc(C3CC3)[nH]c2c1` [compound (I-1), (2-cyclopropyl-6-(3,5-dimethylisoxazol-4-yl)-1H-benzo[d]imidazol-4-yl)di(pyridin-2-yl)methanol], the “difference in protein binding between cell culture media and human plasma” value in series [3] is 5.7 ×. Moreover, the “inhibition of cell growth and viability” value in series [4] (setting [6]) is given as 45%; in series [4] (setting [7]), 20%; in series [4] (setting [8]), 65%; in series [4] (setting [9]) it was 45%; in series [2] (setting [6]), 40%; in series [2] (setting [7]), 0%. For the same molecule, the “inhibition of cell growth and viability” value in series [2] (setting [8]) turned out to be 65%; in series [2] (setting [9]), 25%. For the same molecule, the results for the EC50 in series [2] (compound (I-1) alone) and in series [2] (in the presence of 3,000 nM enzalutamide) were 130 nM and 75 nM, respectively. Also, the “effect on growth and number of viable VCaP cells (in words)” value in series [2] is “potently reduced the growth of VCaP cells; also recorded: decreased the number of viable cells to below that recorded at the beginning of the assay (T=0)”. Moreover, the dose/toxicity relationship entry in series [5] is recorded as “steep dose/toxicity relationship”.
